Assays:
OVCAR-3 = assay: NCI 60 cell-line screen, OVCAR-3 (Ovary); type: cell-based, human; settings: averaged, quadruplicate testing, 48 h, SRB
Description: (§1) The NCI screen consists of a panel of 60 different human tumor cell lines against which compounds are tested over a defined range of concentrations to determine the relative degree of growth inhibition or cytotoxicity against each cell line. The design and operation of the screen is such that for each compound tested, both the absolute and relative sensitivities of individual cell lines comprising the screen are sufficiently reproducible that a characteristic profile or “fingerprint” of cellular response is generated. Compounds which are active in the NCI screen show pronounced differential tumor growth-inhibitory and/or cytotoxic effects to the diverse cell lines comprising the 60 cell-line panel. The degree of differential response between the most and least sensitive lines typically may be relatively small (e.g., 2- to 10-fold), or occasionally as great as 3-4 orders of magnitude. […]
(§2) In the screening assay, each agent is tested over a broad concentration range against every cell line in the panel. […] Test compounds are evaluated at five 10-fold dilutions. […] Optical densities are measured on automated plate readers, followed by computerized data acquisition, processing, storage, and availability for display and analysis. […]

RXF-393 = assay: NCI 60 cell-line screen, RXF-393 (Kidney); type: cell-based, human; settings: averaged, quadruplicate testing, 48 h, SRB
Description: as §1, §2

[1] = Stability of compounds and extracts in solvents and media; type: physicochemical
Excerpt: Therefore, all subsequent attempts at isolation avoided the use of chloroform or exposure of samples to CDCl3, and no further problems with decomposition or loss of bioactivity were encountered. Moreover, there was no indication of any instability of the pure isolated compounds in any of the other common organic solvents employed, nor in aqueous or biological media. Therefore, a typical isolation and purification of the salicylihalamides from the selected crude extract is as follows.

COLO 205 = assay: NCI 60 cell-line screen, COLO 205 (Colon); type: cell-based, human; settings: averaged, quadruplicate testing, 48 h, SRB
Description: as §1, §2

SNB-75 = assay: NCI 60 cell-line screen, SNB-75 (Brain); type: cell-based, human; settings: averaged, quadruplicate testing, 48 h, SRB
Description: as §1, §2

[2] = tested on: panel of 60 different human tumor cell lines; assay: NCI 60 cell-line human tumor screen, whole panel; type: cell-based
Description: as §1, §2
Three additional numbers are printed at the base of each of the three respective mean-graphs. […] The MG-MID is the calculated mean panel GI50, TGI, or LC50. […]

SF-539 = assay: NCI 60 cell-line screen, SF-539 (Brain); type: cell-based, human; settings: averaged, quadruplicate testing, 48 h, SRB
Description: as §1, §2

K-562 = assay: NCI 60 cell-line screen, K-562 (Leukemia); type: cell-based, human; settings: averaged, quadruplicate testing, 48 h, SRB
Description: as §1, §2

HCT-116 = assay: NCI 60 cell-line screen, HCT-116 (Colon); type: cell-based, human; settings: averaged, quadruplicate testing, 48 h, SRB
Description: as §1, §2

PC-3 = assay: NCI 60 cell-line screen, PC-3 (Prostate); type: cell-based, human; settings: averaged, quadruplicate testing, 48 h, SRB
Description: as §1, §2

salicylihalamide A
negative log10 GI50 (OVCAR-3): 7.03 | negative log10 GI50 (RXF-393): 9.07 | stability in deuterated chloroform (CDCl3) [1]: sensitivity | negative log10 GI50 (COLO 205): 8.07 | negative log10 GI50 (SNB-75): 6.21 | GI50 ([2]; mean over the NCI 60 cell-line panel, read-out: mean panel GI50 concentration): ~0.015 µM | range of differential sensitivity among the 60 cell-lines ([2]; most vs least sensitive lines of the NCI panel): greater than or equal to 10^3 | negative log10 GI50 (SF-539): 7.89 | negative log10 GI50 (K-562): 8.41 | negative log10 GI50 (HCT-116): 8.74 | negative log10 GI50 (PC-3): 7.51
